Test results: PubChem BioAssay (NCI)
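Cells were grown in 96-well plates and exposed to each compound for 48 hours at five concentrations; endpoints were interpolated linearly between bracketing concentrations, or set to the highest concentration if not reached. GI50 is the concentration that inhibits growth by half. TGI: concentration producing complete growth inhibition.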

Assays:
Assay in all cases: inhibition of tumour cell growth, NCI panel, 48 h
U251 CNS = test system: U251 CNS
CAKI-1 renal = test system: CAKI-1 renal
NCI/ADR-RES ovarian = test system: NCI/ADR-RES ovarian
NCI-H23 lung = test system: NCI-H23 lung
OVCAR-8 ovarian = test system: OVCAR-8 ovarian
MDA-MB-435 = test system: MDA-MB-435
RXF 393 renal = test system: RXF 393 renal
NCI-H522 lung = test system: NCI-H522 lung
HOP-62 NSCLC = test system: HOP-62 NSCLC
OVCAR-4 ovarian = test system: OVCAR-4 ovarian
786-0 renal = test system: 786-0 renal
A498 renal = test system: A498 renal
SNB-19 CNS = test system: SNB-19 CNS
M14 melanoma = test system: M14 melanoma
PC-3 prostate = test system: PC-3 prostate
OVCAR-3 ovarian = test system: OVCAR-3 ovarian
HCT-116 colon = test system: HCT-116 colon
MOLT-4 leukemia = test system: MOLT-4 leukemia
SK-OV-3 ovarian = test system: SK-OV-3 ovarian
HCT-15 colon = test system: HCT-15 colon
SK-MEL-28 melanoma = test system: SK-MEL-28 melanoma
NCI-H460 lung = test system: NCI-H460 lung
MCF7 breast = test system: MCF7 breast
MALME-3M melanoma = test system: MALME-3M melanoma
SF-268 CNS = test system: SF-268 CNS
SW-620 colon = test system: SW-620 colon
SF-539 CNS = test system: SF-539 CNS
SF-295 CNS = test system: SF-295 CNS
HOP-92 NSCLC = test system: HOP-92 NSCLC
NCI-H226 lung = test system: NCI-H226 lung
CCRF-CEM leukemia = test system: CCRF-CEM leukemia
HCC-2998 colon = test system: HCC-2998 colon
SNB-75 CNS = test system: SNB-75 CNS
KM12 colon = test system: KM12 colon
OVCAR-5 ovarian = test system: OVCAR-5 ovarian
K-562 leukemia = test system: K-562 leukemia
BT-549 breast = test system: BT-549 breast
MDA-MB-231 breast = test system: MDA-MB-231 breast
UO-31 renal = test system: UO-31 renal
A549 NSCLC = test system: A549 NSCLC
HT29 colon = test system: HT29 colon
DU-145 prostate = test system: DU-145 prostate
COLO 205 colon = test system: COLO 205 colon
T-47D breast = test system: T-47D breast
SK-MEL-5 melanoma = test system: SK-MEL-5 melanoma
SR leukemia = test system: SR leukemia
SK-MEL-2 melanoma = test system: SK-MEL-2 melanoma
HS 578T breast = test system: HS 578T breast
TK-10 renal = test system: TK-10 renal
HL-60(TB) leukemia = test system: HL-60(TB) leukemia
LOX IMVI melanoma = test system: LOX IMVI melanoma
UACC-257 melanoma = test system: UACC-257 melanoma
SN12C renal = test system: SN12C renal
UACC-62 melanoma = test system: UACC-62 melanoma
IGROV1 ovarian = test system: IGROV1 ovarian
ACHN renal = test system: ACHN renal
RPMI-8226 leukemia = test system: RPMI-8226 leukemia

With `Cc1ccc2c(c1)c(Sc1ccc(C(=O)NO)cc1)c1n2CN(C)CC1` the GI50 (U251 CNS) was 1.61 µM, the TGI (U251 CNS) was 3.42 µM and the GI50 (CAKI-1 renal) was 3.87 µM. It also gave a TGI (CAKI-1 renal) of 13.9 µM, a GI50 (NCI/ADR-RES ovarian) of 3.88 µM and a TGI (NCI/ADR-RES ovarian) of 19 µM. For the same compound, the GI50 (NCI-H23 lung) was 1.8 µM, the TGI (NCI-H23 lung) was 3.85 µM and the GI50 (OVCAR-8 ovarian) was 1.69 µM. For the same compound, the TGI (OVCAR-8 ovarian) was 4.99 µM, the GI50 (MDA-MB-435) was 1.58 µM and the TGI (MDA-MB-435) was 3.37 µM. The GI50 (RXF 393 renal) was 1.74 µM, the TGI (RXF 393 renal) was 5.86 µM and the GI50 (NCI-H522 lung) was 1.16 µM. The TGI (NCI-H522 lung) was 2.61 µM, the GI50 (HOP-62 NSCLC) was 1.61 µM and the TGI (HOP-62 NSCLC) was 3.83 µM. It also gave a GI50 (OVCAR-4 ovarian) of 1.51 µM, a TGI (OVCAR-4 ovarian) of 9.04 µM and a GI50 (786-0 renal) of 2.82 µM. The TGI (786-0 renal) was 8.53 µM, the GI50 (A498 renal) was 0.191 µM and the TGI (A498 renal) was 2.16 µM. It also gave a GI50 (SNB-19 CNS) of 2.13 µM, a TGI (SNB-19 CNS) of 7.27 µM and a GI50 (M14 melanoma) of 1.72 µM. The TGI (M14 melanoma) was 3.79 µM, the GI50 (PC-3 prostate) was 1.5 µM and the TGI (PC-3 prostate) was 3.77 µM. It also gave a GI50 (OVCAR-3 ovarian) of 1.93 µM, a TGI (OVCAR-3 ovarian) of 5.63 µM and a GI50 (HCT-116 colon) of 1.59 µM. The TGI (HCT-116 colon) was 3.54 µM, the GI50 (MOLT-4 leukemia) was 2.05 µM and the TGI (MOLT-4 leukemia) was 6.98 µM. It also gave a GI50 (SK-OV-3 ovarian) of 1.77 µM, a TGI (SK-OV-3 ovarian) of 3.8 µM and a GI50 (HCT-15 colon) of 3.65 µM. For the same compound, the TGI (HCT-15 colon) was 13.6 µM, the GI50 (SK-MEL-28 melanoma) was 1.58 µM and the TGI (SK-MEL-28 melanoma) was 3.63 µM. For the same compound, the GI50 (NCI-H460 lung) was 2.05 µM, the TGI (NCI-H460 lung) was 6.16 µM and the GI50 (MCF7 breast) was 2.44 µM. For the same compound, the TGI (MCF7 breast) was 11.5 µM, the GI50 (MALME-3M melanoma) was 1.35 µM and the TGI (MALME-3M melanoma) was 4.2 µM. For the same compound, the GI50 (SF-268 CNS) was 1.6 µM, the TGI (SF-268 CNS) was 3.7 µM and the GI50 (SW-620 colon) was 1.77 µM. The TGI (SW-620 colon) was 4.45 µM, the GI50 (SF-539 CNS) was 1.4 µM and the TGI (SF-539 CNS) was 2.92 µM. The GI50 (SF-295 CNS) was 1.83 µM, the TGI (SF-295 CNS) was 3.69 µM and the GI50 (HOP-92 NSCLC) was 2.1 µM. It also gave a TGI (HOP-92 NSCLC) of 6.37 µM, a GI50 (NCI-H226 lung) of 1.83 µM and a TGI (NCI-H226 lung) of 4.86 µM. It also gave a GI50 (CCRF-CEM leukemia) of 1.3 µM, a TGI (CCRF-CEM leukemia) of 9.52 µM and a GI50 (HCC-2998 colon) of 1.64 µM. The TGI (HCC-2998 colon) was 3.67 µM, the GI50 (SNB-75 CNS) was 0.96 µM and the TGI (SNB-75 CNS) was 3.76 µM. The GI50 (KM12 colon) was 1.71 µM, the TGI (KM12 colon) was 3.5 µM and the GI50 (OVCAR-5 ovarian) was 1.75 µM. The TGI (OVCAR-5 ovarian) was 5.54 µM, the GI50 (K-562 leukemia) was 3.17 µM and the TGI (K-562 leukemia) was 11.9 µM. For the same compound, the GI50 (BT-549 breast) was 1.8 µM, the TGI (BT-549 breast) was 4.57 µM and the GI50 (MDA-MB-231 breast) was 1.51 µM. It also gave a TGI (MDA-MB-231 breast) of 4.13 µM, a GI50 (UO-31 renal) of 2.15 µM and a TGI (UO-31 renal) of 9.1 µM. The GI50 (A549 NSCLC) was 2.27 µM, the TGI (A549 NSCLC) was 5.81 µM and the GI50 (HT29 colon) was 2.53 µM. It also gave a TGI (HT29 colon) of 8.38 µM, a GI50 (DU-145 prostate) of 1.83 µM and a TGI (DU-145 prostate) of 5.28 µM. It also gave a GI50 (COLO 205 colon) of 1.82 µM, a TGI (COLO 205 colon) of 4.11 µM and a GI50 (T-47D breast) of 1.53 µM. For the same compound, the TGI (T-47D breast) was 5.45 µM, the GI50 (SK-MEL-5 melanoma) was 2.23 µM and the TGI (SK-MEL-5 melanoma) was 6.27 µM. It also gave a GI50 (SR leukemia) of 2.69 µM, a TGI (SR leukemia) of 8.93 µM and a GI50 (SK-MEL-2 melanoma) of 1.88 µM. For the same compound, the TGI (SK-MEL-2 melanoma) was 4.21 µM, the GI50 (HS 578T breast) was 2.25 µM and the TGI (HS 578T breast) was 13 µM. For the same compound, the GI50 (TK-10 renal) was 2.19 µM, the TGI (TK-10 renal) was 6.73 µM and the GI50 (HL-60(TB) leukemia) was 2.35 µM. For the same compound, the TGI (HL-60(TB) leukemia) was 6.4 µM, the GI50 (LOX IMVI melanoma) was 1.59 µM and the TGI (LOX IMVI melanoma) was 3.36 µM. It also gave a GI50 (UACC-257 melanoma) of 1.48 µM, a TGI (UACC-257 melanoma) of 5.37 µM and a GI50 (SN12C renal) of 2.28 µM. The TGI (SN12C renal) was 6.79 µM, the GI50 (UACC-62 melanoma) was 1.51 µM and the TGI (UACC-62 melanoma) was 3.25 µM. The GI50 (IGROV1 ovarian) was 2.23 µM, the TGI (IGROV1 ovarian) was 5.46 µM and the GI50 (ACHN renal) was 2.68 µM. The TGI (ACHN renal) was 8.63 µM, the GI50 (RPMI-8226 leukemia) was 1.1 µM and the TGI (RPMI-8226 leukemia) was 9.86 µM.
